Reference: patent US20240158438A1, “POLYPEPTIDE COMPOUND AND APPLICATION THEREOF” (CHENGDU SINTANOVO BIOTECHNOLOGY CO., LTD., priority 2021, published 2024)
Starred links: 1 amine or outer side, 2 acyl side, 3 side chain; linkers in the order of their positions; H or OH if unused. Non-standard residues stand in square brackets, D forms with d. Residues, ends and D or L forms follow the SMILES beside them. *: point of attachment. Azetidine3carboxylic = O=C(C1CN([*:1])C1)[*:2]; Pyrrolidine3carbonyl(3S) = O=C([C@H]1CCNC1)*; dBta = N[C@H](Cc1csc2ccccc12)C(=O)O; dTle = CC(C)(C)[C@@H](N)C(=O)O; Ac4c(3-oxa) = NC1(C(=O)O)COC1; X1 = N[C@H]1CCC[C@H]1C(=O)*; dAbu = CC[C@@H](N)C(=O)O; Api = NC1(C(=O)O)CCNCC1; Abu = CC[C@H](N)C(=O)O; X3 = NCC1(C(=O)*)CCC1; βAla = NCCC(=O)O

Experiments:
GHSR-1a = GHSR-1a (Homo sapiens (Human), UniProt Q92847); assay: Agonistic activity for GHSR-1a, FLIPR calcium assay; format: cell-based; settings: agonist activity assay, Flp In-CHO-GHSR Stable Pool cells, FLIPR calcium 6 kit; read-out: The activity (IC50) of polypeptide compounds for GHSR-1a
Description: The use of recombinant expression of GHSR provides several advantages; for example, the receptor can be expressed in a determined cell system, so that it is easier to distinguish between the reactions of the compounds with GHSR and the reactions with other receptors. For example, cell lines such as HEK293, COS7 and CHO that […] can be used to express GHSR, and the same cell lines without expression vectors are used as controls.
The activity of GHSR-1a can be measured using different techniques, for example, by detecting the change in the intracellular conformation of GHSR, the change in G-protein coupling activity, and/or the change in intracellular messengers. Techniques such as measuring intracellular Ca^2+ are preferably used to measure the activity of GHSR-1a. Examples of techniques known in the art that can be used to measure Ca^2+ include the use of FLIPR® calcium ion assay kits, among others. The FLIPR® calcium ion assay kits use a calcium ion sensitive indicator and a masking dye to ensure that a researcher carries out high-sensitivity fluorescent screening for G protein-coupled receptors, ion channels and other calcium ion sensitive targets. This experiment used FLIPR calcium 6 assay kits and FLIPR calcium 6-QF assay kits.
• a) Cell line: Flp In-CHO-GHSR Stable Pool; • b) Complete medium: F12K+10% fetal bovine serum+1×penicillin-streptomycin (PS)+600 μg/mL hygromycin B; • c) Cell seeding medium: F12K+10% fetal bovine serum. • d) Assay buffer: 1× HBSS+20 mM HEPES. • e) […] component A: Assay buffer and component A were left at room temperature (RT), 10 mL of buffer was added to component A, and the mixture was vortexed for 1-2 min and stored at −20° C.
• a) Compound stock solutions: the powders from in-house synthesis were made into 10 mM stock solutions in DMSO according to the standard protocol. • b) Compound storage: all compounds in DMSO were stored in room temperature desiccators for short-term storage (at most 4 months). The remaining compounds were left at −20 ° C. for long-term storage.
• a) Flp In-CHO-GHSR Stable Pool cells were cultured in complete medium. • b) The cells were placed in […] cell seeding medium in a 384-well cell culture plate (Corning, 3764) at 7k cells/well and cultured overnight at 37° C. with 5% CO2. • c) 20× component A was thawed at room temperature, diluted with assay buffer to 2×, and left at RT. • d) The Petri dish was taken out of the incubator and equilibrated at room temperature for 10 min. The medium was changed to […]. After the final wash, 20 μL of buffer was kept in each well, 20 μL of 2× component A was then added to each well, and the plate was incubated at 37° C. for 3-5 s. • e) 10 μL of 5× compound was added to the 384-well cell culture plate, and data collection was immediately performed using FLIPR Tetra.
• 1) Z′ factor=1−3×(SDMax+SDMin)/(MeanMax−MeanMin); • 2) CVMax=(SDMax/MeanMax)×100%; • 3) CVMin=(SDMin/MeanMin)×100%; • 4) S/B=Singal/Background; • 5) Calculation formula for IC50: • Y=Bottom+(Top−Bottom)/(1+10^((LogIC50−X)×HillSlope)) • X: log value of compound concentration; Y: Activation % or Inhibition %

CYP1A2 = CYP1A2 (Homo sapiens (Human), UniProt P05177); assay: in vitro; format: in vitro ADME; settings: microsomes; for IC50: 10 min
Procedure: (§1) Human liver microsomes containing cytochrome P450 (0.253 mg/mL protein) were incubated with test compounds (0.05-50 μM), CYPs substrates (10 μM […], 5 μM diclofenac, 30 μM mephenytoin, 5 μM dextromethorphan hydrobromide and 2 μM midazolam) and 1.0 mM NADP at 37° C. for 10 min. Naphthoflavone, sulfaphenazole, N-3-benzylnirvanol, quinidine and ketoconazole were used as reference inhibitors.

CYP 2C19 = CYP 2C19 (Homo sapiens (Human), UniProt P33261); format: in vitro ADME; settings: microsomes, 10 min
Procedure: as §1

CYP 2C9 = CYP 2C9 (Homo sapiens (Human), UniProt P11712); format: in vitro ADME; settings: microsomes, 10 min
Procedure: as §1

CYP 2D6 = CYP 2D6 (Homo sapiens (Human), UniProt P10635); format: in vitro ADME; settings: microsomes, 10 min
Procedure: as §1

CYP 3A4 = CYP 3A4 (Homo sapiens (Human), UniProt P08684); format: in vitro ADME; settings: microsomes, 10 min
Procedure: as §1

Sequence of CYP 2D6 (P10635 whole entry): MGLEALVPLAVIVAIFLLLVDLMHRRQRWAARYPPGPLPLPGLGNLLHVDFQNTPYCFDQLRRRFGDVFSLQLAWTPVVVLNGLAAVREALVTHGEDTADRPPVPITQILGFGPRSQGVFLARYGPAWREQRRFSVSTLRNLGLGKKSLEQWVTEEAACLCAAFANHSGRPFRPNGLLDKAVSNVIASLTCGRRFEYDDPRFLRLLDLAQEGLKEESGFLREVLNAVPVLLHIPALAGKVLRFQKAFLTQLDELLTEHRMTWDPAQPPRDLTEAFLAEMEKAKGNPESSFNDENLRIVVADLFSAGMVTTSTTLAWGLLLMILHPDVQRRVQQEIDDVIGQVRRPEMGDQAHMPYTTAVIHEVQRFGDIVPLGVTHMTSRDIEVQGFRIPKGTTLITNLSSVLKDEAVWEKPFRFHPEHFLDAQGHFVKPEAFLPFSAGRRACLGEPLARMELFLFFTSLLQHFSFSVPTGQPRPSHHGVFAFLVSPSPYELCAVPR
Sequence of CYP 2C19 (P33261 whole entry): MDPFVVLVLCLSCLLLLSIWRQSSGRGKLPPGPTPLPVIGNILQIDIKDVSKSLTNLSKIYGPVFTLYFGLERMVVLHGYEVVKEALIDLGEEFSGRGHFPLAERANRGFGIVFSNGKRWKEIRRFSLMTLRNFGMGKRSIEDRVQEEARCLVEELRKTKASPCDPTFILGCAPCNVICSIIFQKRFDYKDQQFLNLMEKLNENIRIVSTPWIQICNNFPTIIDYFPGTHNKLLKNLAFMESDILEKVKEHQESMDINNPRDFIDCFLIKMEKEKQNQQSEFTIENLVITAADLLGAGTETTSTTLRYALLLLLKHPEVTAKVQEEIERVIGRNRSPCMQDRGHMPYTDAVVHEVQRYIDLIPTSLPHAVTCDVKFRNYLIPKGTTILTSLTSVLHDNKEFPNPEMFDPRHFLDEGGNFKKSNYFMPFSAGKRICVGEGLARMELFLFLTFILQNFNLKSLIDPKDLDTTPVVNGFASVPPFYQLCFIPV
Sequence of GHSR-1a (Q92847 whole entry): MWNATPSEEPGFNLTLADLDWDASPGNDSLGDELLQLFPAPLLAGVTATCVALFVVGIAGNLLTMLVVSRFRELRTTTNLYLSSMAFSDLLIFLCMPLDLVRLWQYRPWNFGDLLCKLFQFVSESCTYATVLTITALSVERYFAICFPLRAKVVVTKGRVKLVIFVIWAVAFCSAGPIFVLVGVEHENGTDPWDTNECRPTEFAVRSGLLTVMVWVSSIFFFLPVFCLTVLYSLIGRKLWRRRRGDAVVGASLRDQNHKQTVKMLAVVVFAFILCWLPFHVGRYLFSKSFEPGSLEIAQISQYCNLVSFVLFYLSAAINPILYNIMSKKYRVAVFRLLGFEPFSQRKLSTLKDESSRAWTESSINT
Sequence of CYP1A2 (P05177 whole entry): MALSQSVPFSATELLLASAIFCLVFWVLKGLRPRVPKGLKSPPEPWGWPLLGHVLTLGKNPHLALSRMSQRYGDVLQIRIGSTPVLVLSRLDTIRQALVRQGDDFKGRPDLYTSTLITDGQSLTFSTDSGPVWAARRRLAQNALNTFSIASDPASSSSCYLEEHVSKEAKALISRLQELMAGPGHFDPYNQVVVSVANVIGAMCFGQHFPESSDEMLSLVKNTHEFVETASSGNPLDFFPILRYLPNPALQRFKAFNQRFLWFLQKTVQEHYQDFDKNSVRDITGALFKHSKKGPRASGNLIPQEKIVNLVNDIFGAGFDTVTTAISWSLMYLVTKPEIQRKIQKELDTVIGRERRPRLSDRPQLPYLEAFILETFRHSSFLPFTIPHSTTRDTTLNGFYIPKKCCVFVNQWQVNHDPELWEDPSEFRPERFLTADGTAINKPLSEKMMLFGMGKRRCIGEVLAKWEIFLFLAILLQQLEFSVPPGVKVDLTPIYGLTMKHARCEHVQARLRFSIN
Sequence of CYP 2C9 (P11712 whole entry): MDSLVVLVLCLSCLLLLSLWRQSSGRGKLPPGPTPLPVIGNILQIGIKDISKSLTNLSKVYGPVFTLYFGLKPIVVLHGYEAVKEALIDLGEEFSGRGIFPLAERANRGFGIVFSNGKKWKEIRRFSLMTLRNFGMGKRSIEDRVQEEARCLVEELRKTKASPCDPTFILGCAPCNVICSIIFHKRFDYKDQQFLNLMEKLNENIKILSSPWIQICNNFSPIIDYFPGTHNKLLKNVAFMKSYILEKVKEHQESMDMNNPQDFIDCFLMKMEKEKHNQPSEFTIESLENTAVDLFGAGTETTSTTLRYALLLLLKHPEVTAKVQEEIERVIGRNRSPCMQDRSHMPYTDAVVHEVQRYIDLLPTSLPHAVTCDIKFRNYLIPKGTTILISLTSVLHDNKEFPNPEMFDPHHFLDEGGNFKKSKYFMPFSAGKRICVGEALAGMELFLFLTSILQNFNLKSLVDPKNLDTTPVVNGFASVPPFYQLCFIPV
Sequence of CYP 3A4 (P08684 whole entry): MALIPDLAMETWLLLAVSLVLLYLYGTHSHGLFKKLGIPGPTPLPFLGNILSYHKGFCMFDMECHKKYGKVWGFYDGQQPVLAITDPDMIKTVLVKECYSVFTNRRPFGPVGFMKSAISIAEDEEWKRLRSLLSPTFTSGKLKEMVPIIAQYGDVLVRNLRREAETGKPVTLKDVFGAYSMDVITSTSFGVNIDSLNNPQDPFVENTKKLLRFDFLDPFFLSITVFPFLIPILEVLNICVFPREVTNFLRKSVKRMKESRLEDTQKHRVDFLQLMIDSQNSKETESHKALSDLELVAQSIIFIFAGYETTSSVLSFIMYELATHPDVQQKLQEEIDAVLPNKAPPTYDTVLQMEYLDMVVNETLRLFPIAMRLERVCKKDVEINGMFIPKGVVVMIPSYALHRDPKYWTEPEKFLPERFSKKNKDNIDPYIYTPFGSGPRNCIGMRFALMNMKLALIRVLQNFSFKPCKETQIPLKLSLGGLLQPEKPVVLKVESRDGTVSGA

Row | SMILES | IC50 (GHSR-1a) [µM] | IC50 (CYP1A2) [µM] | IC50 (CYP 2C19) [µM] | IC50 (CYP 2C9) [µM] | IC50 (CYP 2D6) [µM] | IC50 (CYP 3A4) [µM] | IC50 at 10 min (CYP1A2) [µM]
1 | CC[C@H](N)C(=O)N[C@H](Cc1csc2ccccc12)C(=O)N[C@H](Cc1c[nH]c2ccccc12)C(=O)N[C@@H](Cc1ccccc1)C(=O)NC1(C(N)=O)CCNCC1 [Compound 3] (H-[Abu][dBta][dW]F[Api]-NH2) | 0.0172 | > 50 | > 50 | > 50 | > 50 | > 50 | –
2 | NC(=O)[C@H](Cc1ccccc1)NC(=O)[C@@H](Cc1c[nH]c2ccccc12)NC(=O)[C@@H](Cc1csc2ccccc12)NC(=O)[C@@H]1CCC[C@@H]1N [Compound 71] | 0.0033 | – | > 50 | > 50 | > 50 | > 50 | > 50
3 | NC(=O)C1(NC(=O)[C@H](Cc2ccccc2)NC(=O)[C@@H](Cc2c[nH]c3ccccc23)NC(=O)[C@@H](Cc2csc3ccccc23)NC(=O)[C@@H]2CCC[C@@H]2N)CCNCC1 [Compound 21] (X1-[dBta][dW]F[Api]-NH2) | 0.023 | > 50 | > 50 | > 50 | > 50 | > 50 | –
4 | NCCC(=O)N[C@H](Cc1csc2ccccc12)C(=O)N[C@H](Cc1c[nH]c2ccccc12)C(=O)N[C@@H](Cc1ccccc1)C(=O)NC1(C(N)=O)CCNCC1 [Compound 16] (H-[βAla][dBta][dW]F[Api]-NH2) | 0.0007 | > 50 | > 50 | > 50 | 35.4 | 19.8 | –
5 | NC(=O)C1(NC(=O)[C@H](Cc2ccccc2)NC(=O)[C@@H](Cc2c[nH]c3ccccc23)NC(=O)[C@@H](Cc2csc3ccccc23)NC(=O)C2CNC2)CCNCC1 [Compound 23] (Azetidine3carboxylic-[dBta][dW]F[Api]-NH2) | 0.0033 | > 50 | > 50 | > 50 | > 50 | > 50 | –
6 | CC[C@@H](N)C(=O)N[C@H](Cc1csc2ccccc12)C(=O)N[C@H](Cc1c[nH]c2ccccc12)C(=O)N[C@@H](Cc1ccccc1)C(=O)N[C@H](CCCCN)C(N)=O [Compound 32] (H-[dAbu][dBta][dW]F[dK]-NH2) | 0.0024 | > 50 | > 50 | > 50 | 24.8 | 2.55 | –
7 | CC(C)(C)[C@@H](N)C(=O)N[C@H](Cc1csc2ccccc12)C(=O)N[C@H](Cc1c[nH]c2ccccc12)C(=O)N[C@@H](Cc1ccccc1)C(=O)N[C@H](CCCCN)C(N)=O [Compound 47] (H-[dTle][dBta][dW]F[dK]-NH2) | 0.0107 | > 50 | > 50 | > 50 | > 50 | > 50 | –
8 | CC[C@H](N)C(=O)N[C@H](Cc1csc2ccccc12)C(=O)N[C@H](Cc1c[nH]c2ccccc12)C(=O)N[C@@H](Cc1ccccc1)C(=O)N[C@H](CCCCN)C(N)=O [Compound 33] (H-[Abu][dBta][dW]F[dK]-NH2) | 0.0031 | > 50 | > 50 | > 50 | > 50 | > 50 | –
9 | NCCCC[C@@H](NC(=O)[C@H](Cc1ccccc1)NC(=O)[C@@H](Cc1c[nH]c2ccccc12)NC(=O)[C@@H](Cc1csc2ccccc12)NC(=O)C1(N)COC1)C(N)=O [Compound 54] (H-[Ac4c(3-oxa)][dBta][dW]F[dK]-NH2) | 0.0139 | > 50 | > 50 | > 50 | > 50 | > 50 | –
10 | NCCCC[C@@H](NC(=O)[C@H](Cc1ccccc1)NC(=O)[C@@H](Cc1c[nH]c2ccccc12)NC(=O)[C@@H](Cc1csc2ccccc12)NC(=O)CCN)C(N)=O [Compound 46] (H-[βAla][dBta][dW]F[dK]-NH2) | 0.0028 | > 50 | > 50 | > 50 | > 50 | > 50 | –
11 | NCCCC[C@@H](NC(=O)[C@H](Cc1ccccc1)NC(=O)[C@@H](Cc1c[nH]c2ccccc12)NC(=O)[C@@H](Cc1csc2ccccc12)NC(=O)C1CNC1)C(N)=O [Compound 53] (Azetidine3carboxylic-[dBta][dW]F[dK]-NH2) | 0.0112 | > 50 | > 50 | > 50 | > 50 | > 50 | –
12 | NCCCC[C@@H](NC(=O)[C@H](Cc1ccccc1)NC(=O)[C@@H](Cc1c[nH]c2ccccc12)NC(=O)[C@@H](Cc1csc2ccccc12)NC(=O)[C@@H]1CCC[C@@H]1N)C(N)=O [Compound 51] (X1-[dBta][dW]F[dK]-NH2) | 0.0032 | > 50 | > 50 | > 50 | > 50 | > 50 | –
13 | NC(=O)C1(NC(=O)[C@H](Cc2ccccc2)NC(=O)[C@@H](Cc2c[nH]c3ccccc23)NC(=O)[C@@H](Cc2csc3ccccc23)NC(=O)[C@@H]2CCCN2)CCNCC1 [Compound 15] (H-P[dBta][dW]F[Api]-NH2) | 0.0023 | > 50 | > 50 | > 50 | 31.1 | 8.82 | –
14 | NC(=O)C1(NC(=O)[C@H](Cc2ccccc2)NC(=O)[C@@H](Cc2c[nH]c3ccccc23)NC(=O)[C@@H](Cc2csc3ccccc23)NC(=O)C2(N)COC2)CCNCC1 [Compound 24] (H-[Ac4c(3-oxa)][dBta][dW]F[Api]-NH2) | 0.0054 | > 50 | > 50 | > 50 | > 50 | > 50 | –
15 | NCC1(C(=O)N[C@H](Cc2csc3ccccc23)C(=O)N[C@H](Cc2c[nH]c3ccccc23)C(=O)N[C@@H](Cc2ccccc2)C(N)=O)CCC1 [Compound 72] | 0.004 | – | > 50 | > 50 | > 50 | > 50 | > 50
16 | NC(=O)[C@H](Cc1ccccc1)NC(=O)[C@@H](Cc1c[nH]c2ccccc12)NC(=O)[C@@H](Cc1csc2ccccc12)NC(=O)[C@H]1CCNC1 [Compound 76] | 0.0039 | – | > 50 | > 50 | > 50 | > 50 | > 50
17 | NCCCC[C@@H](NC(=O)[C@H](Cc1ccccc1)NC(=O)[C@@H](Cc1c[nH]c2ccccc12)NC(=O)[C@@H](Cc1csc2ccccc12)NC(=O)C1(CN)CCC1)C(N)=O [Compound 52] (X3-[dBta][dW]F[dK]-NH2) | 0.0038 | > 50 | > 50 | > 50 | > 50 | > 50 | –
18 | NC(=O)C1(NC(=O)[C@H](Cc2ccccc2)NC(=O)[C@@H](Cc2c[nH]c3ccccc23)NC(=O)[C@@H](Cc2csc3ccccc23)NC(=O)[C@H]2CCNC2)CCNCC1 [Compound 26] ({Pyrrolidine3carbonyl(3S)}-[dBta][dW]F[Api]-NH2) | 0.0195 | > 50 | > 50 | > 50 | > 50 | > 50 | –
